Measured values taken from PMC3688708 (PLoS ONE, 2013).
Where a name gives a salt, the structure may show the parent alone. Read-outs that look alike come from different tables or passages of the source.

Experiments:
PA63-channel [1] = biological target: T1, PA63-channel (Bacillus anthracis, UniProt P13423); assay: biochemical; type: binding
PA63-channel [2] = biological target: T1, PA63-channel; assay: biochemical; type: binding; remark: listed apart in the source
J774A.1 macrophages = type: cell-based; details: for amount of lysed cells (LF-induced cell lysis after acidic pulse): pH 5
J774A.1 cells [3] = details: 100 µM
J774A.1 cells [4] = type: cell-based
PA63-channel [5] = biological target: T1, PA63-channel; details: cited from earlier work
PA63-channel [6] = biological target: T1, PA63-channel; details: cited from earlier work; remark: listed apart in the source
[7] = read-out: Half saturation constant KS, pH 6

T1 sequence (P13423 197-764 limits assumed): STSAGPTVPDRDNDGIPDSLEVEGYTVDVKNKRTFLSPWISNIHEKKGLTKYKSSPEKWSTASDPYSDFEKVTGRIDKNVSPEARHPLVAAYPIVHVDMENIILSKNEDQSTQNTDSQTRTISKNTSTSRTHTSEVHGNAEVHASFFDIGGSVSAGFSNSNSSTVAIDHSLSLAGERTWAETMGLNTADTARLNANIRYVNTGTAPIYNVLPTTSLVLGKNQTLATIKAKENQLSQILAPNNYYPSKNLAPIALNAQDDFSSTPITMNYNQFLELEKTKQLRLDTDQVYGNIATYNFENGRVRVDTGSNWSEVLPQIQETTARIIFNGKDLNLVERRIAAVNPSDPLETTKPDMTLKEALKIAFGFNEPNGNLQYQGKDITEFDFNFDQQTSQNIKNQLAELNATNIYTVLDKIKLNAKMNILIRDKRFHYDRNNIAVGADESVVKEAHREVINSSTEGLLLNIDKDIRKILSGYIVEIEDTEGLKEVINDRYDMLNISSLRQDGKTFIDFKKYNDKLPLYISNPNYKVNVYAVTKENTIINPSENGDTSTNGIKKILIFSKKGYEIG

In the case of `Clc1cc(Cl)c(-n2nnc3cccc[n+]32)c(Cl)c1` [HA 728], the Kd (PA63-channel [1]; Half saturation constant KS) is reported as 85 µM and the “Stability constant K” value (PA63-channel [1]; pH 6) is reported as 11,800 L/mol.

For `Clc1ccc(OCn2cc[n+]3ccccc23)c(Cl)c1` [HA 486], the Kd (PA63-channel [2]) was 32000 nM, the “off-rate k-1” value (PA63-channel [2]) was 3,500 1/s and the “on-rate constant k1” value (PA63-channel [2]) was 1.2e+08 M⁻¹ s⁻¹. For the same molecule, the “K (stability constant from ratio k1/k-1)” value (PA63-channel [2]; pH 6) was 34,000 L/mol, the “k1 (on-rate constant)” value (PA63-channel [2]; pH 6) was 1.2×10^8 L/(molxs) and the “k-1 (off-rate constant)” value (PA63-channel [2]; pH 6) was 3,500 1/s. The “K*” value (PA63-channel [1]) was 38,000 L/mol, the Kd (PA63-channel [1]; Half saturation constant KS) was 27 µM and the “Stability constant K” value (PA63-channel [1]; pH 6) was 38,000 L/mol.

In the case of `Clc1ccc(OCn2cn[n+]3ccccc23)c(Cl)c1` [HA 766], the Kd (PA63-channel [1]; Half saturation constant KS) is reported as 36 µM and the “Stability constant K” value (PA63-channel [1]; pH 6) is reported as 29,400 L/mol.

With `O=c1[nH]c2cccc[n+]2c2ccccc12` [HA 47] the “Stability constant K” value (PA63-channel [1]; pH 6) was 500 L/mol and the Kd (PA63-channel [1]; [7]) was 1990 µM.

For `COc1ccc(-n2c(=S)n(-c3ccc([N+](=O)[O-])cc3)c3cccc[n+]32)cc1` [HA 1885], the Kd (PA63-channel [1]; Half saturation constant KS) was 110 µM and the “Stability constant K” value (PA63-channel [1]; pH 6) was 10,800 L/mol.

In the case of `O=[N+]([O-])c1cccc(-n2c(-c3ccc(Br)cc3)c[n+]3ccccc23)c1` (as salt: bromide) [HA1495, 1-(3-nitrophenyl)-2-(4-bromophenyl)imidazo[1,2-a]pyridinium bromide], the melting point is reported as 176 to 177 °C.

With `O=C(C[n+]1ccccc1Cl)c1ccc([N+](=O)[O-])cc1` [HA 1371] the Kd (PA63-channel [1]; Half saturation constant KS) was 310 µM and the “Stability constant K” value (PA63-channel [1]; pH 6) was 3,200 L/mol.

With `Clc1ccc(-n2nnc3ccc4ccccc4[n+]32)c(Cl)c1` [HA 1221] the Kd (PA63-channel [1]; Half saturation constant KS) was 170 µM and the “Stability constant K” value (PA63-channel [1]; pH 6) was 6,000 L/mol.

With `O=c1c2ccccc2[n+]2ccccc2n1Cc1cccc2ccccc12` [HA 1882] the Kd (PA63-channel [1]; Half saturation constant KS) was 130 µM and the “Stability constant K” value (PA63-channel [1]; pH 6) was 7,900 L/mol.

In the case of `Cn1c(COc2ccc(Cl)cc2)n[n+]2ccccc12` [HA 1196], the Kd (PA63-channel [1]; Half saturation constant KS) is reported as 260 µM and the “Stability constant K” value (PA63-channel [1]; pH 6) is reported as 3,800 L/mol.

For `O=[N+]([O-])c1cccc(-n2c(-c3ccc(Br)cc3)c[n+]3ccccc23)c1` [HA1495, 1-(3-nitrophenyl)-2-(4-bromophenyl)imidazo[1,2-a]pyridinium bromide], the “amount of lysed cells (LF-induced cell lysis after acidic pulse)” value (“amount of lysed cells” below) (J774A.1 macrophages) was “significantly reduced”, the “cell viability (MTS assay)” value (J774A.1 cells [3]; 24 h) was “no effect on cell viability” and the Kd (PA63-channel [1]; Half saturation constant KS) was 3.6 µM. For the same molecule, the “Stability constant K” value (PA63-channel [1]; pH 6) was 274,000 L/mol and the “protection from lysis by PA63/LF in the medium” value (shortened to “protection from lysis by PA63/LF”) (J774A.1 cells [4]) was “moderate inhibitory effect”.

In the case of `CCOC(=O)c1ccc(-n2c(-c3ccc(Br)cc3)c[n+]3cccc(O)c23)cc1` [HA 1504], the Kd (PA63-channel [1]; Half saturation constant KS) is reported as 12 µM and the “Stability constant K” value (PA63-channel [1]; pH 6) is reported as 82,900 L/mol.

With `O=[N+]([O-])c1ccc(-c2c[n+]3ccccc3n2-c2ccc(O)cc2)cc1` [HA1383, 1-(4-hydroxyphenyl)-2-(4-nitrophenyl)imidazo[1,2-a]pyridinium tetrafluoroborate] the “amount of lysed cells” value (J774A.1 macrophages) was “significantly reduced”, the Kd (PA63-channel [2]) was 1800 nM and the “off-rate k-1” value (PA63-channel [2]) was 352 s⁻¹. The “K (stability constant from ratio k1/k-1)” value (PA63-channel [2]; pH 6) was 560,000 L/mol, the “k1 (on-rate constant)” value (PA63-channel [2]; pH 6) was 2.1×10^8 L/(molxs) and the “k-1 (off-rate constant)” value (PA63-channel [2]; pH 6) was 370 s⁻¹. For the same molecule, the “cell viability (MTS assay)” value (J774A.1 cells [3]; 7 h) was “no effect on cell viability”, the “cell viability (MTS assay)” value (J774A.1 cells [3]; 24 h) was “slightly decreased” and the melting point was 171 to 173 °C. For the same molecule, the “K (Lineweaver-Burke plot)” value (PA63-channel [1]) was 740,000 1/M, the “K*” value (PA63-channel [1]) was 749,000 L/mol and the Kd (PA63-channel [1]; Half saturation constant KS) was 1.3 µM. The Kd (PA63-channel [1]; Half saturation constant Ks) was 1.34 µM and the “protection from lysis by PA63/LF” value (J774A.1 cells [4]) was “moderate inhibitory effect”.

In the case of `COc1ccc([N+](=O)[O-])cc1-n1nnc2cccc[n+]21` [HA 1212], the “Stability constant K” value (PA63-channel [1]; pH 6) is reported as 7,000 L/mol and the Kd (PA63-channel [1]; [7]) is reported as 150 µM.

With “1-(4-chlorophenyl)-2-(4-bromophenyl)imidazo[1,2-a]pyridinium tetrafluoroborate [HA1568]” the “viability of J774A.1 cells by MTS-assay after acidic shift with PA63/LF” value (J774A.1 macrophages) was “protective effect”, the “amount of lysed cells” value (J774A.1 macrophages) was “significantly reduced” and the “off-rate k-1” value (PA63-channel [2]) was 260 s⁻¹. For the same molecule, the “on-rate constant k1” value (PA63-channel [2]) was 1.3e+08 M⁻¹ s⁻¹, the “K (stability constant from ratio k1/k-1)” value (PA63-channel [2]; pH 6) was 511,000 L/mol and the “k1 (on-rate constant)” value (PA63-channel [2]; pH 6) was 1.3×10^8 L/(molxs). For the same molecule, the “k-1 (off-rate constant)” value (PA63-channel [2]; pH 6) was 260 s⁻¹, the Kd (PA63-channel [2]; pH 6, read-out: KS) was 2000 nM and the “cell viability (MTS assay)” value (J774A.1 cells [3]; 24 h) was “no effect on cell viability”. The “K*” value (PA63-channel [1]) was 478,000 L/mol, the “Stability constant K” value (PA63-channel [1]; pH 6) was 478,000 L/mol and the Kd (PA63-channel [1]; pH 6, read-out: Half saturation constant KS) was 2.7 µM. The “lethal toxin-treated cells that survived in the presence of the substance” value (J774A.1 cells [4]) was “about 80%” and the “protection from lysis by PA63/LF” value (J774A.1 cells [4]) was “protected”.

In the case of `Brc1ccc(-c2csc3cccc[n+]23)cc1` [HA 112], the Kd (PA63-channel [1]; Half saturation constant KS) is reported as 57 µM and the “Stability constant K” value (PA63-channel [1]; pH 6) is reported as 18,500 L/mol.

For `CCN(CC)CCCC(C)Nc1ccnc2cc(Cl)ccc12` (stereo not shown) [Chloroquine], the “K*” value (PA63-channel [5]) is given as 676,000 L/mol, the “Stability constant K” value (PA63-channel [5]; pH 6) is given as 676,000 L/mol and the Kd (PA63-channel [5]; [7]) is given as 1500 nM. For the same molecule, the Kd (PA63-channel [5]; read-out: Half saturation constant Ks) was 1430 nM, the “K (stability constant from ratio k1/k-1)” value (PA63-channel [6]) was 1,030,000 L/mol and the “k1 (on-rate constant)” value (PA63-channel [6]) was 3.6×10^8 L/(molxs). The “k-1 (off-rate constant)” value (PA63-channel [6]) was 350 s⁻¹ and the Kd (PA63-channel [6]; read-out: KS) was 970 nM.
